# Test results published in US20240174647A1 (NEURON23, INC., priority 2022, published 2024).
# pIC50: −log10 of the molar value.
# Biological target: wt human LRRK2, catalytic site (Homo sapiens (Human), UniProt Q5S007)
# Experiment: TR-FRET LanthaScreen Tb Kinase Activity Assay (LRRK2 kinase inhibition)
# Assay type: biochemical
# Conditions: 2 nM wt human LRRK2, 400 nM fluorescein-ERM (LRRKtide) peptide, 38 μM ATP, 120 minutes at room temperature
# Summary of the method: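 LanthaScreen TR-FRET with 2 nM wt human LRRK2 catalytic site, 400 nM fluorescein-ERM (LRRKtide) peptide and 38 µM ATP in Kinase Buffer A; 120 min at room temperature. Phosphorylation detected with EDTA and Tb-anti-pLRRKtide after 60 min; IC50 from emission ratios.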
# wt human LRRK2, catalytic site, sequence (Q5S007 1879-2138): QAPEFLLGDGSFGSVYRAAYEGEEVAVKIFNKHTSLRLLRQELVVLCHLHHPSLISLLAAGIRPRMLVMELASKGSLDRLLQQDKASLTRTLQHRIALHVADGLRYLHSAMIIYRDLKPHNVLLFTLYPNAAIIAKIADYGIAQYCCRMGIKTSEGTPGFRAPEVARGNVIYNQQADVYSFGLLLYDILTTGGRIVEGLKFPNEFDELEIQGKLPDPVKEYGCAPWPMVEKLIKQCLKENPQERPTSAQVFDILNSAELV
row,SMILES,pIC50
1,"CNc1nc(Nc2cc(CCC(=O)N3CCOCC3)cc3[nH]ncc23)ncc1C(F)(F)F [Example 53, 3-(4-((4-(methylamino)-5-(trifluoromethyl)pyrimidin-2-yl)amino)-1H-indazol-6-yl)-1-morpholinopropan-1-one]",6.70 to 7.30
2,"CNc1nc(Nc2cc(C)cc3c2cnn3C)ncc1C(F)(F)F [Example 45, N2-(1,6-dimethyl-1H-indazol-4-yl)-N4-methyl-5-(trifluoromethyl)pyrimidine-2,4-diamine]",> 7.30
3,"CNc1nc(Nc2ccnc3ccnn23)ncc1C(F)(F)F [Example 115, N^4-methyl-N^2-pyrazolo[1,5-a]pyrimidin-7-yl-5-(trifluoromethyl)pyrimidine-2,4-diamine]",≤ 6.70
4,"CNc1nc(Nc2ccc3c(Br)n[nH]c3c2)ncc1C(F)(F)F [Example 7, N2-(3-bromo-1H-indazol-6-yl)-N4-methyl-5-(trifluoromethyl)pyrimidine-2,4-diamine]",> 7.30
5,"CNc1nc(Nc2ccc3cnccn23)ncc1C(F)(F)F [Example 126, N^4-methyl-N^2-pyrrolo[1,2-a]pyrazin-6-yl-5-(trifluoromethyl)pyrimidine-2,4-diamine]",≤ 6.70
6,"CC(C)(C#N)n1ncc2c(Nc3ncc(C(F)(F)F)c(NC4CCC4)n3)cccc21 [Example 113, 2-(4-((4-(cyclobutylamino)-5-(trifluoromethyl)pyrimidin-2-yl)amino)-1H-indazol-1-yl)-2-methylpropanenitrile]",> 7.30
7,"CC(C)n1ncc2c(Nc3ncc(C(F)(F)F)c(NC4CC4)n3)cccc21 [Example 169, N4-cyclopropyl-N2-(1-isopropyl-1H-indazol-4-yl)-5-(trifluoromethyl)pyrimidine-2,4-diamine]",> 7.30
